Laboratory results as given in patent US20080070971A1, “Medical Use of Bilirubin and its Structural Analogues” (priority 2006, published 2008).

Experiments:
[1] = test system: Pancreas phospholipase A2 (PLA2); test: Phospholipase A2 FlashPlate inhibition assay; assay type: biochemical; details: bilirubin concentration of about 10 mg/L; pH=7.2 (FIG. 1)
Procedure: Pancreas phospholipase A2 (PLA2) (SigmaAldrich Cat.# P223), acetylcholinesterase (SigmaAldrich cat.# C0663), acetyleholine chloride (Cat.# A6625), and bilirubin (SigmaAldrich #B4126) were purchased from SigmaAldrich. Bilirubin solution was prepared freshly by dissolving it in dimethyl sulfoxide (DMSO) and further dilutions were made in Tris-HCl buffer (pH 7.4). The sPLA2 activity was determined by the FlashPlate assay procedure described by Do and Kasila (American Biotechnology Laboratory, June 2001, P 51-52). Briefly, phospholipid flash plates (PerkinElmer Life Sciences, cat. #SMP108) were coated with 0.2 mL/well of the substrate of 1-steroyl 2-arachidonyl phosphatidylcholine (PerkinElmer Life Sciences, cat. #NE872). The plate was covered and incubated overnight at room temperature. After the incubation, the wells were aspirated prior to use in the PLA2 assay. The substrate assay buffer contained 50 mM tris-HCl (pH=7.3), 0.2 M NaCl, 0.1 mM CaCl2, 0.1 mM EDTA, 0.02% deoxycholate, 10-50 units/mL PLA2, and final volume 200 μL/well. The bound radioactivity was determined by counting the FlashPlate.

[2] = test system: liver cholesterol esterase; test: Cholesterol esterification by liver cholesterol esterase; assay type: biochemical
HMG-CoA reductase = biological target: T1, HMG-CoA reductase (Homo sapiens, UniProt P04035); test: HMG-CoA reductase assay in liver microsomes; assay type: biochemical; details: 10 mg/L (FIG. 5)
T1 construct: from tissue; host or cells: liver microsomes
T1 sequence (P04035 1-888): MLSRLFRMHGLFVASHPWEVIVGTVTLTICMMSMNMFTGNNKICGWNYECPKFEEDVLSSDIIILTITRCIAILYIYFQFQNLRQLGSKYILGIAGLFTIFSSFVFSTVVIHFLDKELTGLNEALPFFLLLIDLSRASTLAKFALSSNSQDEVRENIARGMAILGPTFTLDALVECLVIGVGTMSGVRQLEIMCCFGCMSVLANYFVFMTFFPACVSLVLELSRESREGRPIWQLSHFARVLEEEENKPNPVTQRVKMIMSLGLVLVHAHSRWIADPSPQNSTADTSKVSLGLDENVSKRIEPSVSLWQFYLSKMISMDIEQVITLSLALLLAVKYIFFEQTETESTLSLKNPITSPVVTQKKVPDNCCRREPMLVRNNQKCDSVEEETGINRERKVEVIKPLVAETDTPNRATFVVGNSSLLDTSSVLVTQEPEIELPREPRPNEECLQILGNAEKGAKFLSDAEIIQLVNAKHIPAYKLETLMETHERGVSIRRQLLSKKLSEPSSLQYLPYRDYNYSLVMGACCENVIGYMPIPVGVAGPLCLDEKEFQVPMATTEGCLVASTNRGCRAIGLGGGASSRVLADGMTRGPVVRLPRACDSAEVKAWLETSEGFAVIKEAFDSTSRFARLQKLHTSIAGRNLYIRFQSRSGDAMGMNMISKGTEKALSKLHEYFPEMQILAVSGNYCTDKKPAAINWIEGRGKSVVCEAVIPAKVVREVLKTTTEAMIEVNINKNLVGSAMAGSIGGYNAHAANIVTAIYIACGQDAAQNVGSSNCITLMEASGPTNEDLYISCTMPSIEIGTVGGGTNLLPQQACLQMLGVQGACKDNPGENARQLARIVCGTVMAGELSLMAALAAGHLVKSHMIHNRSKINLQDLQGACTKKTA
Procedure: Liver microsomes, which are used to investigate cholesterol metabolism, were prepared as follows. Liver was homogenized in 50 mM Tris HCl buffer (pH 7.4), containing 0.3 M sucrose, 10 mM DTT, and 10 mM EDTA. The homogenate was centrifuged at 20,000×g for 15 min, and the supernatant was centrifuged at 100,000×g for 60 min. The resulting microsomal fraction was suspended in 3 ml of 0.1 M potassium phosphate buffer (pH 7.4), containing 1 mM EDTA and 5 mM DTT. Aliquots were immediately frozen in liquid nitrogen and stored at −20° C. until analysis.
Assay of HMG-CoA reductase. Microsomal suspensions of […], containing 5 mg protein, were preincubated for 5 min at 37° C. with […] of 0.1 M potassium phosphate buffer (pH 7.4), containing 1 mM EDTA and 12 mM glucose-6-phosphate. The assay was initiated by adding […] of cofactor-substrate solution (0.1 mM HMG-CoA, 3 mM MADPH, and 2 U/ml glucose-6-phosphate dehydrogenase). The incubation was performed at 37+ C. for 30 min and was terminated by the addition of […] of 1 M MaOH. After lactonization, the mevalonolactone was separated by thin layer chromatography. The eluate, which contained mevalonolactone, was collected in a scintillation vial. The radioactivity was then counted in a Packard 3320 scintillation spectrometer.

[3] = test system: malate dehydrogenase (MDH); test: Malate dehydrogenase inhibition; assay type: biochemical; details: concentration equivalent to the moderate level of serum bilirubin (FIG. 7)
[4] = Minimal erythema dose (MED) on skin exposed to solar radiation; assay type: in vivo, human
Description: Healthy volunteers were exposed to solar radiation for evaluation of minimal erythema dose (MED)—a direct sign of acute inflammation, without and with pretreatment of bilirubin (dissolved in dimethyl sulfoxide).

Human carcinoma cells = test: Cancer cell growth by cell counting; assay type: cell-based; details: concentrations above 10 mg/L (FIG. 10)
Procedure: Cell growth. Human carcinoma cells were cultured continuously in a medium containing ferrous sulfate, kept in a humidified incubator at 37° C. Cancer cells were seeded in triplicate at a density of 10,000 cells/3.5-cm culture dish overnight before being subjected to treatments. Growth was estimated by counting cells in a hemocytometer after staining cells with trypan blue. Cell yields from cultures maintained in seeding medium served as growth controls for computing the relative cell growth.

[5] = Oral bilirubin supplementation, blood chemistry; assay type: in vivo
Procedure: 2-6 bilirubin pills (10 mg/capsule)were ingested daily as a dietary supplement over time period from 3-12 months. Blood samples were taken by medical professionals and blood chemistry, including serum bilirubin level, total cholesterol, triglyceride, LDL-cholesterol, and HDL cholesterol were analyzed by independent medical testing laboratories.

[6] = 2-6 pills (10 mg/capsule) daily, 3-12 months
[7] = at higher serum bilirubin level (FIG. 12)

C=CC1=C(C)C(=Cc2[nH]c(Cc3[nH]c(C=C4NC(=O)C(C)=C4C=C)c(C)c3CCC(=O)O)c(CCC(=O)O)c2C)NC1=O [bilirubin, 2,7,13,17-tetramethyl-1,19-dioxo-3,18-divinyl-1,10,19,22,23,24-hexahydro-21H-biline-8,12-dipropanoic acid]
inhibition of the PLA2 activity [1]: about 80% | inhibition of cholesterol esterification by liver cholesterol esterase [2]: inhibits | reduction of HMG-CoA reductase activity (HMG-CoA reductase): ≤ 60% | inhibition of malate dehydrogenase [3]: strongly suppressed | skin inflammation after UV exposure ([4]; bilirubin treated skin areas): no sign of inflammation | minimal erythema dose (MED) ([4]; topical pretreatment with bilirubin in DMSO (FIG. 8)): increased | relative cell growth (Human carcinoma cells): largely suppressed | total cholesterol concentration [5, 6]: varied inversely | total serum bilirubin level [5, 6]: effectively increased | LDL-cholesterol level [5, 7]: lower | triglycerol level [5, 7]: lower | fecal fat content ([5]; bilirubin treatment): substantially increased
